The target in one test is T1, substance P receptor (Homo sapiens, UniProt P25103).
T1 construct: The receptor was prepared from human lymphoblast cells (IM-9); endogenous in cells; host or cells: IM-9 human lymphoblast cells (crude membrane preparation)
Put plainly: Radioligand receptor binding inhibitory activity using receptor from human lymphoblast cells (IM-9), 125I-BHSP. The following applies: human IM-9 cell receptor, 25° C., 30 minutes, pH 7.4, n=1. The procedure:
Radioligand receptor binding inhibitory activity
Binding inhibitory activity using receptor from human lymphoblast cells (IM-9)
The method of A. Margaret "Molecular Pharmacology 42, p.458 (1992)" was modified and used. The receptor was prepared from human lymphoblast cells (IM-9). IM-9 cells (2×10^5 cells/ml) were inoculated and incubated for 3 days (one liter), which was then subjected to centrifuge for 5 minutes at 500×g to obtain cell pellets. The pellets were washed once with phosphate buffer (Flow Laboratories, CAT. No. 28-103-05), which were then crushed using Polytron.homogenizer "Kinematika, Germany" in 30 ml of 50 mM Tris-HCl buffer (pH 7.4) containing 120 mM sodium chloride, 5 mM potassium chloride, 2 μg/ml chymostatin, 40 μg/ml bacitracin, 5 μg/ml phosphoramidon, 0.5 mM phenylmethyl sulfonyl fluoride, 1 mM ethylenediamine tetra-acetic acid, which was subjected to centrifuge at 40,000×g for 20 minutes. The residue was washed twice with 30 ml of the above-mentioned buffer, which was then preserved frozen (-80° C.) as a specimen of the receptor.
The specimen was suspended in a reaction buffer (50 mM Tri-HCl buffer (pH 7.4), 0.02% bovine serum albumin, 1 mM phenylmethylsulfonyl fluoride, 2 μg/chymostatin, 40 μg/ml bacitracin, 3 mM manganese chloride) and 100 ul portion was the suspension was used in the reaction. After addition of the sample and ^125 I-BHSP (0.46 KBq), the reaction was allowed to proceed in 0.2 ml of reaction buffer at 25° C. for 30 minutes. The amount of nonspecific binding was determined by adding substance P at a final concentration of 2×10^-6 M. After the reaction, using a cell harvester (290 PHD, Cambridge Technology, Inc, U.S.A.), rapid filtration was carried out through a glass filter (GF/B, Whatman, U.S.A.) to stop the reaction. After washing three times with 250 ul of 50 mM of Tris-HCl buffer (pH 7.4) containing 0.02% bovine serum albumin, the radioactivity remaining on the filter was determined with a gamma counter. Before use, the filter was immersed in 0.1% polyethyleneimine for 24 hours and air-dried. […] (Radioligand means substance P labelled with ^125 I.) The number of this experiment is one.

The test system of test [1] is plasma extravasation induced by capsaicin in trachea. Put plainly: Inhibitory effect on plasma extravasation induced by capsaicin in trachea of guinea pigs. The class given is in vivo, guinea pigs (Hartley type white male). The conditions noted are these: Cavia porcellus, iv, 5 min, 5 min before capsaicin (150 μg/kg i.v.), guinea pig trachea, n=6; for inhibition in vivo at 0.03 mg/kg: 0.03 mg/kg i.v.; for inhibition in vivo at 0.1 mg/kg: 0.1 mg/kg i.v. The method, then:
Inhibitory effect on plasma extravasation induced by capsaicin in trachea of guinea pigs
Guinea pigs (Hartley type white male guinea pigs), (n=6) were anesthetized with 35 mg/kg of pentobarbital injected intraperitoneally (i.p.), then test compounds were administered intravenously (i.v.). After 5 minutes, a mixed solution of capsaicin (150 μg/kg) and Evans' blue dye (20 mg/kg) was administered intravenously to cause reaction. Ten minutes later, test animals were sacrificed by cutting the aorta, then perfused through pulmonary artery with 50 ml of physiological saline. The trachea was excised, and its wet weight was measured. The trachea was incubated at room temperature in 1 ml of acetone-0.3% sodium sulfate (7:3) overnight and Evans' blue dye was extracted from the trachea. The extract solution was centrifuged at 2800 rpm for 5 minutes. The amount of Evans' blue dye in the supernatant was quantified by measuring absorbance at […].
Plasma extravasation was expressed in terms of the amount of Evans' blue dye (μg) relative to the weight of the trachea (g). The efficacy of the drug was evaluated by calculating the % inhibition in accordance with the following formula. [formula] A: the amount of Evan's blue dye (μg/g) in each test animal B: the mean amount of Evan's blue dye (μg/g) of the group untreated with capsaicin.
C: the mean amount of Evan's blue dye (μg/g) of control group

T1 sequence (P25103 whole entry): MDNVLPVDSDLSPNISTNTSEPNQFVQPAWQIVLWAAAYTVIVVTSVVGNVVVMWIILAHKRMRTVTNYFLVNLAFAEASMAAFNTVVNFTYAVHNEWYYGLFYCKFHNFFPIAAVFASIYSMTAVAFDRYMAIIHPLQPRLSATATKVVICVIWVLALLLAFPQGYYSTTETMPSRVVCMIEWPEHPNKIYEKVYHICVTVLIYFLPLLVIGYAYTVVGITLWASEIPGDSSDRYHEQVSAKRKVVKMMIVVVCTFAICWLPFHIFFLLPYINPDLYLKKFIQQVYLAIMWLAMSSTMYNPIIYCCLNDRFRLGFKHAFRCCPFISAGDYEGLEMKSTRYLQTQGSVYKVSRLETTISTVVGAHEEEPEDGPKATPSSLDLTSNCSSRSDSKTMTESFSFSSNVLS

A word on the IC50: it is the midpoint of a concentration-inhibition curve. The term inhibition in vivo denotes the drop in the measured response relative to a control, in per cent. Lower therefore signals little suppression. Consider `CN(Cc1cc(C(F)(F)F)cc(C(F)(F)F)c1)C(=O)c1c(-c2ccc(F)cc2)c2cccnc2c(=O)n1C` [Example 1, N-[3,5-Bis(trifluoromethyl)benzyl]-5-(4-fluorophenyl)-7,8-dihydro-N, 7-dimethyl-8-oxo-6-pyrido[3,4-b]pyridine carboxamide], for which the IC50 at substance P receptor worked out at 0.08 nM. In addition, 0.03 mg/kg produced 76.1% inhibition in vivo in test [1].
Molecule `CN(Cc1cc(C(F)(F)F)cc(C(F)(F)F)c1)C(=O)c1c(-c2ccc(F)cc2)c2nccnc2c(=O)n1C` [Example 7, N-[3,5-Bis(trifluoromethyl)benzyl]-8-(4-fluorophenyl)-5,6-dihydro-N, 6-dimethyl-5-oxo-7-pyrido[3,4-b]pyrazine carboxamide] gave an IC50 at substance P receptor of 0.2 nM. In addition, the inhibition in vivo at 0.1 mg/kg in test [1] stood at 71.9%.
For `CN(Cc1cc(C(F)(F)F)cc(C(F)(F)F)c1)C(=O)c1c(-c2ccc(F)cc2)c2ccncc2c(=O)n1C` [Example 8, N-[3,5-Bis(trifluoromethyl)benzyl]-4-(4-fluorophenyl)-1,2-dihydro-N, 2-dimethyl-1-oxo-3-pyrido[3,4-c]pyridine carboxamide], the IC50 at substance P receptor stood at 0.17 nM. In test [1], this molecule yielded an inhibition in vivo at 0.1 mg/kg of 64.9%.
The like results for `CN(Cc1cc(C(F)(F)F)cc(C(F)(F)F)c1)C(=O)c1c(-c2ccc(F)cc2)c2ccsc2c(=O)n1C` [Example 13, N-[3,5-Bis(trifluoromethyl)benzyl]-4-(4-fluorophenyl)-6,7-dihydro-N, 6-dimethyl-7-oxo-5-thieno[2,3-c]pyridinecarboxamide] were, in that order, 0.08 nM and 76.1%.
The matching figures for `CN(Cc1cc(C(F)(F)F)cc(C(F)(F)F)c1)C(=O)c1c(-c2ccc(F)cc2)c2sccc2c(=O)n1C` [Example 17, N-[3,5-Bis(trifluoromethyl)benzyl]-7-(4-fluorophenyl)-4,5-dihydro-N, 5-dimethyl-4-oxo-6-thieno[3,2-c]pyridinecarboxamide]: 0.31 nM and 51.5%.
As to `Cc1ccccc1-c1c2c(c(=O)n(C)c1C(=O)N(C)Cc1cc(C(F)(F)F)cc(C(F)(F)F)c1)CCCN2` [Example 26, N-[3,5-Bis(trifluoromethyl)benzyl]-1,2,3,4,5,6-hexahydro-N, 6-dimethyl-8-(2-methylphenyl)-5-oxo-7-pyrido[4,3-b]pyridinecarboxamide], at substance P receptor, the IC50 stood at 0.05 nM. Further, the inhibition in vivo at 0.03 mg/kg in test [1] was found to be 46.2%.
Molecule `CN(Cc1cc(C(F)(F)F)cc(C(F)(F)F)c1)C(=O)c1c(-c2ccccc2)c2ccsc2c(=O)n1C` [Example 44, N-[3,5-bis(trifluoromethyl)benzyl]-6,7-dihydro-N, 6-dimethyl-7-oxo-4-phenyl-5-thieno[2,3-c]pyridinecarboxamide] displayed an IC50 on substance P receptor of 0.24 nM.
For the molecule `COc1ccccc1CN(C)C(=O)c1c(-c2ccccc2)c2ccsc2c(=O)n1C` [Example 46, 6,7-Dihydro-N-(2-methoxybenzyl)-N, 6-dimethyl-7-oxo-4-phenyl-5-thieno[2,3-c]pyridinecarboxamide], the IC50 at substance P receptor stood at 26 nM.
At substance P receptor, `Cc1ccccc1-c1c(C(=O)N(C)Cc2cc(C(F)(F)F)cc(C(F)(F)F)c2)n(C)c(=O)c2sccc12` [Example 47, N-[3,5-Bis(trifluoromethyl)benzyl]-6,7-dihydro-N, 6-dimethyl-4-(2-methylphenyl)-7-oxo-5-thieno[2,3-c]pyridinecarboxamide] returned an IC50 of 0.2 nM.
On substance P receptor, `CN(Cc1cc(C(F)(F)F)cc(C(F)(F)F)c1)C(=O)c1c(-c2ccccc2)c2c(c(=O)n1C)CCCN2` [Example 51] showed an IC50 of 2.1 nM.
`CN(Cc1cc(C(F)(F)F)cc(C(F)(F)F)c1)C(=O)c1c(-c2ccccc2)c2c(c(=O)n1C)NCCC2` [Example 55, N-[3,5-Bis(trifluoromethyl)benzyl]-1,2,3,4,7,8-hexahydro-5-phenyl-N,7-dimethyl-8-oxo-6-pyrido[3,4-b]pyridinecarboxamide]: the IC50 on substance P receptor came to 0.7 nM.
The same measure, in the same setting: the value for “N-[3,5-Bis(trifluoromethyl)benzyl]-5-(chloro-2-methylphenyl)-7,8-dihydro-N,7-dimethyl-8-oxo-6-pyrido[3,4-b]pyridinecarboxamide and its isomer [Example 11]” was 0.2 nM.
